From patent US20150272934A1, “USE OF CSE INHIBITORS FOR THE TREATMENT OF CUTANEOUS INJURIES OR CONDITIONS AND SLEEP-RELATED BREATHING DISORDERS” (SOVA PHARMACEUTICALS, INC., priority 2012, published 2015)

Columns and labels:
[1] = Half-life of L-propargylglycine (statement in dosing rationale)
[2] = test system: hypoxic ventilatory response; test: Rat hypoxic ventilatory response (HVR) in sham and carotid sinus nerve (CSN) transection animals; format: in vivo, Sprague Dawley rats; conditions: 100 mg/kg L-PAG
Experimental: Male Sprague Dawley rats from Harlan Laboratories weighing 350±31 g (Mean±SD); were maintained on a 12 hour light:dark cycle (6 am lights on) with food and water ad libitum.
L-Propargyl Glycine (L-PAG) was solubilized in saline at 33.3 mg/ml.
Carotid sinus nerve (CSN) transaction—Under appropriate anesthesia the rat's neck is shaved and prepped for surgery with betadine solution. An incision is made in the throat area extending about 2 cm. The underlying musculature is incised to expose the carotid bifurcation on both sides. A silk suture is looped around the proximal external carotid and retracted laterally for control. […] The carotid sinus nerve is transected where it originates on the exposed part of the glossopharyngeal and ascends to the carotid bifurcation.
Animals were pre-habituated to the test environment on 2 separate 45 minute periods prior to the test day. Following administration of test compounds animals were placed inside the whole body plethysmography chamber. The animals were allowed to acclimate to the environment for 60 minutes while breathing a 21% O2 balance N2 gas mix. After acclimation, the following gas mix protocol was followed:
Cycles were designated to be the periods of both normoxia and hypoxia. Each experiment consisted of 2 cycles (or repeated sets) of the HVR to a normoxic-hypoxic shift. The cycles were 30 minutes in duration to allow for serial sampling from baseline and all 4 WBP test chambers. Each sampling period was of 4 minutes duration and was in a varying order but was always preceded by a 4 minute baseline. The sampling periods were calculated to allow for equilibration of the gas mixture in the WBP chamber. Switching of the multiplexer (MUX) line sampler system was achieved through use of a user defined program. The gas mixtures were likewise switched automatically using a user defined custom mix program and the Sable Systems/Alicat Multi Flow Controller utility.
Analysis of data was performed in GraphPad Prism (v5) using embedded 1-way Analysis of Variance (ANOVA) followed by Dunnett's or Tukey's MCT post hoc testing where appropriate. Bartlett's Equal Variance tests were performed on all data sets, however failure of equal variance was not considered to impinge the validity of the test.

[3] = test system: deep partial thickness cutaneous burn injury, zone of stasis; test: Comb burn model for cutaneous burn; format: in vivo, Sprague-Dawley rats

C#CC[C@H](N)C(=O)O [L-propargylglycine]
half-life [1]: very long | HVR (change in slope of minute ventilation) ([2]; CSN transection animals): did not change | Increase of minute ventilation (VE) when FiO2 changed from 21% to 10% ([2]; CSN transection animals): 22% | Increase of minute ventilation (VE) when FiO2 changed from 21% to 10% ([2]; sham animals): 51% | HVR (change in slope of minute ventilation) ([2]; sham animals, p<0.05): significantly reduced | Viability of zones of stasis/interspaces on gross examination (burn progression) ([3]; L-propargylglycine 100 mg/kg IP Day 0, Compound 1 20 mg/kg PO once daily, 6-day time course, versus control animals): maintain viability | Perfusion in zones of stasis/interspace areas (LDI analysis) ([3]; over time course, control animals showed a decrease in perfusion): perfusion is maintained | Blinded photo grading of treated interspaces versus control interspaces ([3]; within 48-72 hours, less injured versus worse/the same scale): less injured than controls
